Reference: ChEMBL document CHEMBL1156621, “Synthesis and cellular effects of cycloterpenals: cyclohexadienal-based activators of neurite outgrowth” (2008)
Values after ≈ are worked out from the molar mass of the structure shown.

Legend:
Format in all cases: functional
[1] = test system: Bacillus subtilis; experiment: Antibacterial activity against Bacillus subtilis after 16 hrs
[2] = test system: Saccharomyces cerevisiae; experiment: Antifungal activity against Saccharomyces cerevisiae after 16 hrs
[3] = test system: Escherichia coli; experiment: Antibacterial activity against Escherichia coli after 16 hrs

Row | SMILES | MIC [1] | MIC [2] | MIC [3]
1 | CN(C)c1ccc(-c2cc(-c3ccc4ccccc4c3)ccc2C=O)cc1 | > 100 µg/mL | > 100 µg/mL | > 100 µg/mL
2 | Cc1ccc(C=O)c(-c2ccccc2)c1 | > 100 µg/mL | > 100 µg/mL | > 100 µg/mL
3 | CC(C)=CCCC1=CC=C(C=O)C(C)(CCC=C(C)C)C1 (stereo unspecified) | > 100 µg/mL | > 100 µg/mL | > 100 µg/mL
4 | CC(C)=CCCc1ccc(C=O)c(-c2ccccc2)c1 | > 100 µg/mL | > 100 µg/mL | > 100 µg/mL
5 | CC1(c2ccc3c(c2)Cc2ccccc2-3)CC(c2ccc3c(c2)Cc2ccccc2-3)=CC=C1C=O (stereo unspecified) | > 100 µg/mL | > 100 µg/mL | > 100 µg/mL
6 | CC(C)=CCCC1=CC=C(C=O)C(c2ccc(N(C)C)cc2)C1 (stereo unspecified) | > 100 µg/mL | > 100 µg/mL | > 100 µg/mL
7 | CC(C)=CCC/C(C)=C/C[C@H]1C(C)=CC=C(C=O)[C@H]1c1ccccc1 | > 100 µg/mL | > 100 µg/mL | > 100 µg/mL
8 | CC(C)=CCC1CC(C=O)=CC=C1C (stereo unspecified) | > 100 µg/mL | > 100 µg/mL | > 100 µg/mL
9 | CC1=C(/C=C/C2=CC=C(C=O)C(c3ccccc3)C2)C(C)(C)CCC1 (stereo unspecified) | > 100 µg/mL | > 100 µg/mL | > 100 µg/mL
10 | CC1(c2ccc3ccccc3c2)CC(c2ccc3ccccc3c2)=CC=C1C=O (stereo unspecified) | > 100 µg/mL | > 100 µg/mL | > 100 µg/mL
11 | CC1=CC=C(C=O)C(C)(C)C1 | > 100 µg/mL | > 100 µg/mL | > 100 µg/mL
12 | Cc1ccc(C2=CC=C(C=O)C(C)(C)C2)o1 | > 100 µg/mL | > 100 µg/mL | > 100 µg/mL
13 | CC(C)=CCCC1=CC=C(C=O)C(c2ccccc2)C1 (stereo unspecified) | > 100 µg/mL | > 100 µg/mL | > 100 µg/mL
14 | CC1=C(/C=C/C2=CC=C(C=O)C(C)(/C=C/C3=C(C)CCCC3(C)C)C2)C(C)(C)CCC1 (stereo unspecified) | > 100 µg/mL | > 100 µg/mL | > 100 µg/mL
15 | CC1=CC=C(C=O)C(c2ccccc2)C1 (stereo unspecified) | > 100 µg/mL | > 100 µg/mL | > 100 µg/mL
16 | CC1=C(/C=C/C(C)=C/C=C/c2ccc(C=O)c(-c3ccccc3)c2)C(C)(C)CCC1 | > 100 µg/mL | > 100 µg/mL | > 100 µg/mL
17 | CC(C)=CCCc1ccc(C=O)c(-c2ccc(N(C)C)cc2)c1 | > 100 µg/mL | > 100 µg/mL | > 100 µg/mL
18 | CC1(c2cccs2)CC(c2ccc(-c3ccccc3)cc2)=CC=C1C=O (stereo unspecified) | 10 µg/mL (≈ 28.1 µM) | > 100 µg/mL | > 100 µg/mL
19 | O=CC1=CC=C(c2ccc3ccccc3c2)CC1c1ccccc1 (stereo unspecified) | > 100 µg/mL | > 100 µg/mL | > 100 µg/mL
20 | CC(C)=CCC/C(C)=C/CCC1=CC=C(C=O)C(C)(CC/C=C(\C)CCC=C(C)C)C1 (stereo unspecified) | > 100 µg/mL | > 100 µg/mL | > 100 µg/mL
21 | O=CC1=CC=C(c2ccc(-c3ccccc3)cc2)CC1c1ccccc1 (stereo unspecified) | > 100 µg/mL | > 100 µg/mL | > 100 µg/mL
22 | Cc1ccc(C2=CC=C(C=O)C(C)(c3ccc(C)o3)C2)o1 (stereo unspecified) | > 100 µg/mL | > 100 µg/mL | > 100 µg/mL
23 | CC1(c2ccc(-c3ccccc3)cc2)CC(c2ccc(-c3ccccc3)cc2)=CC=C1C=O (stereo unspecified) | > 100 µg/mL | > 100 µg/mL | > 100 µg/mL

More lines, now with the values ahead:

Row | MIC [1] | MIC [2] | MIC [3] | SMILES
24 | > 100 µg/mL | > 100 µg/mL | > 100 µg/mL | CC(C)=CC[C@H]1C(C)=CC=C(C=O)[C@H]1c1ccccc1
25 | > 100 µg/mL | > 100 µg/mL | > 100 µg/mL | CC1=C(/C=C/C2=CC=C(C=O)C(c3ccc([N+](=O)[O-])cc3)C2)C(C)(C)CCC1 (stereo unspecified)
26 | > 100 µg/mL | > 100 µg/mL | > 100 µg/mL | O=CC1=CC=C(c2cccs2)CC1c1ccccc1 (stereo unspecified)
27 | > 100 µg/mL | > 100 µg/mL | > 100 µg/mL | CN(C)c1ccc(C2CC(c3cccs3)=CC=C2C=O)cc1 (stereo unspecified)
28 | > 100 µg/mL | > 100 µg/mL | > 100 µg/mL | CCC1(c2cccs2)C(C=O)=CC=C(c2cccs2)C1C (stereo unspecified)
29 | > 100 µg/mL | > 100 µg/mL | > 100 µg/mL | Cc1ccc(C=O)c(-c2ccc([N+](=O)[O-])cc2)c1
30 | > 100 µg/mL | > 100 µg/mL | > 100 µg/mL | CC(C)=CC[C@H]1C(C)=CC=C(C=O)[C@H]1c1ccc(N(C)C)cc1
31 | > 100 µg/mL | > 100 µg/mL | > 100 µg/mL | CC1=CC=C(C=O)C(c2ccc(N(C)C)cc2)C1 (stereo unspecified)
32 | > 100 µg/mL | > 100 µg/mL | > 100 µg/mL | CC1CC(c2ccc3c(c2)Cc2ccccc2-3)=CC=C1C=O (stereo unspecified)
33 | > 100 µg/mL | > 100 µg/mL | > 100 µg/mL | Cc1ccc(C2=CC=C(C=O)C(c3ccc([N+](=O)[O-])cc3)C2)o1 (stereo unspecified)
34 | > 100 µg/mL | > 100 µg/mL | > 100 µg/mL | O=CC1=CC=C(c2ccc3ccccc3c2)CC1c1ccc([N+](=O)[O-])cc1 (stereo unspecified)
35 | > 100 µg/mL | > 100 µg/mL | > 100 µg/mL | CC1C(c2cccs2)=CC=C(C=O)C1c1ccc([N+](=O)[O-])cc1 (stereo unspecified)
36 | > 100 µg/mL | > 100 µg/mL | > 100 µg/mL | CN(C)c1ccc(C2CC(c3ccccc3)=CC=C2C=O)cc1 (stereo unspecified)
37 | > 100 µg/mL | > 100 µg/mL | > 100 µg/mL | CC(C)=CC[C@@H]1C(C)=CC=C(C=O)[C@H]1c1ccc(N(C)C)cc1
